According to article PMC6195846 (Molecular microbiology, 2018):

How the values were obtained:
RsBluE [1] = biological target: T1, RsBluE (Cereibacter sphaeroides, UniProt Q3IZR9); experiment: ADP-Glo ATPase assay; format: biochemical; conditions: ATPase inhibition by product; ADP 20 mM; sarkosyl-solubilized enzyme; 25 C
RsBluE [2] = biological target: T1, RsBluE; experiment: ADP-Glo ATPase assay; format: biochemical; conditions: ATPase inhibition; sodium pyrophosphate 10 mM; sarkosyl-solubilized enzyme; 25 C

For Nc1ncnc2c1ncn2[C@@H]1O[C@H](COP(=O)(O)OP(=O)(O)O)[C@@H](O)[C@H]1O [ADP], the “% decrease in activity at 20 mM” value (RsBluE [1]) was 52%.

O=P(O)(O)OP(=O)(O)O [PPi] was tested, and the “% decrease in activity at 10 mM” value (RsBluE [2]) was 12%.
